The values that follow come from PubChem BioAssay (NCI).

Values joined by “and” are separate entries in the source; they are usually repeats but may differ in a detail not shown here. Equal values may be shown once.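 Grown in 96-well plates, cells were treated for 48 hours with each compound at five concentrations. Insufficient inhibition: endpoint recorded as highest concentration tested. At the GI50, growth is halved. The concentration for full growth arrest is given as TGI.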 Where only a bound is given, the exact number is not on record here.

What all share (test): NCI tumour cell line growth inhibition, 48 h
Assay [1] relates to HCT-15 colon.
Assay [2] concerns SF-295 CNS.
Assay [3] deals with SN12C renal.
The subject of assay [4] is SR leukemia.
For assay [5], the system named is SW-620 colon.
The subject of assay [6] is UACC-257 melanoma.
The test system of assay [7] is MALME-3M melanoma.
Assay [8] has as its system A498 renal.
In assay [9] the test system is BT-549 breast.
Assay [10] has as its system MDA-MB-435.

`OCC(O)CC[CH2][Sn]([Br])([c]1ccccc1)[c]1ccccc1` (configuration not stated): the GI50 in assay [1], in assay [2], in assay [3], in [4], in assay [5] and in [6] was > 100 µM throughout. Moreover, the TGI in [1], in assay [2], in [3], in [4], in assay [5] and in assay [6] was > 100 µM each time.

Consider `O=C(O)CNS(=O)(=O)c1ccc(NCc2ccccc2)cc1`, for which the TGI in [1], in [7], in assay [3], in [5] and in [6] was > 100 µM in each case.

Regarding `O=C(/N=N/C(=O)OCc1ccccc1)OCc1ccccc1`, the TGI in assay [1], in [7], in [2], in assay [3], in assay [5] and in [6] was > 100 µM throughout.

Regarding `[Cl-].[Dy+3].[O-]/N=C(\c1ccccc1)c1ccccn1.[O-]/N=C(\c1ccccc1)c1ccccn1.[O-]/N=C(\c1ccccc1)c1ccccn1`, the GI50 in assay [8] is 25.8 µM; in assay [1], 37 µM; in assay [7], 34.4 µM; in [2] it was 20.9 µM; in assay [3], 46.4 µM; in [5], 41.8 µM. The GI50 in [6] is 24.5 µM. In addition, the TGI in assay [8] is > 100 µM; in assay [1], > 100 µM; in assay [7] it was > 100 µM; in assay [2], 68.8 µM; in [3], > 100 µM; in [5] it was > 100 µM. In [6], the TGI is 67.8 µM.

As for `CC(=O)CNC(=O)OC(C)(C)C`, the TGI in assay [8], in [7], in [2], in assay [3], in assay [4] and in [5] was > 100 µM in each case. For the same molecule, the TGI in assay [6] is > 100 µM.

On to `Cn1c2ccccc2c2c(-c3ccccc3)[n+]3ccncc3nc21`, for which the GI50 was > 100 µM in assay [8]; 29.6 µM in assay [9]; > 100 µM in assay [1]; 93.8 µM in assay [7]; 94.3 µM in assay [10]; > 100 µM in assay [2]. Also, the GI50 is 48.2 µM in [3], > 100 µM in assay [5] and 59.5 µM in [6]. Further, the TGI in assay [8], in assay [9], in assay [1], in [7], in assay [10] and in assay [2] was > 100 µM each time. Further, the TGI in assay [3], in assay [5] and in assay [6] was > 100 µM each time.

`CCC[CH2][Sn]1([CH2]CCC)[O]Cc2nc(C)ccc2[O]1`: the GI50 is 13.3 µM in assay [8]; 10.1 µM in [1]; 5.03 µM in assay [7]; 2.02 µM in assay [2]; 11.3 µM in assay [3]; 2.95 µM in [4]. Moreover, the values for the GI50 in [5] and in assay [6] were 2.81 µM and 5.6 µM, respectively. Moreover, the TGI was determined as 26.8 µM in assay [8]; 21.9 µM in assay [1]; 14.5 µM in assay [7]; 3.69 µM in [2]; 23.3 µM in [3]; 12.7 µM in [4]. Further, the results for the TGI in assay [5] and in assay [6] were 12.1 µM and 20.2 µM, respectively.

Consider `NC(=O)C(=O)N/N=C(\CC1(O)C(=O)Nc2ccccc21)c1ccc2ccccc2c1` (configuration not stated), for which the TGI in [8] is 82.1 µM; in assay [1], > 100 µM; in [7] it was > 100 µM; in assay [2] it was > 100 µM; in [3] it was 60.5 µM; in [4], 44.5 µM. Also, the TGI in assay [5] and in assay [6] was > 100 µM each time.

Consider `O=c1/c(=C/c2ccco2)sc2nc3ccccc3n12`, for which the GI50 in assay [8], in assay [7], in assay [2], in assay [5] and in assay [6] was > 100 µM throughout. The TGI is > 100 µM in assay [8]; > 10 µM in assay [1]; > 100 µM in [7]; > 100 µM in assay [2]; > 10 µM in assay [3]; > 10 µM in [4]. The TGI in assay [5] and in assay [6] was > 100 µM in each case.

Turning to `CCC[CH2][Sn]([CH2]CCC)([O]C(=O)c1cccnc1SC)[O]C(=O)c1cccnc1SC`, the GI50 was 0.676 µM in assay [8]; 1.04 µM in [1]; 0.295 µM in assay [7]; 1.38 µM in assay [2]; 0.62 µM in assay [3]; 0.248 µM in [5]. Further, the GI50 in assay [6] is 0.922 µM. The TGI stood at 1.95 µM in [8]; 2.3 µM in assay [1]; 1.49 µM in assay [7]; 2.67 µM in assay [2]; 1.92 µM in [3]; 1.25 µM in assay [5]. This molecule showed a TGI in assay [6] of 2.14 µM.

Consider `COc1ccc(/C=C/CN(C)CCc2ccccc2)cc1OC`, for which the TGI in assay [1], in assay [7], in assay [2], in [3], in [5] and in assay [6] was > 100 µM throughout.

Take `O=C1C2c3[nH]c4ccccc4c3C3CCCCCCC3C2C(=O)N1c1ccccc1` (configuration not stated): the TGI in assay [8] was 39.9 µM; in assay [1], > 100 µM; in [7], 12.7 µM; in assay [2], 12.8 µM; in assay [3], 22.2 µM; in [4], 48.4 µM. The molecule also displayed a TGI in assay [5] of 29.8 µM.

With `CCc1ccc(/C=C\c2cc(OC)c(OC)c(OC)c2)cc1`, the GI50 in assay [8] was 0.0233 µM; in assay [1], 0.0327 µM; in [7], 0.0447 µM; in assay [3] it was 0.0539 µM; in assay [6], 0.0802 µM. Also, the TGI in assay [8] was 0.433 µM and 0.389 µM; in assay [7], 37.4 µM; in assay [10], 0.0066 µM; in [2], 0.0171 µM; in [4], 0.336 µM; in assay [6] it was 72.1 µM.

In the case of `O=C1CCC(=O)N2CCCCN12`, the TGI in assay [8], in assay [1], in assay [7], in assay [2], in [3] and in assay [5] was > 100 µM throughout. Moreover, in [6], the TGI is > 100 µM.

As to `O=C1/C(=C/c2ccccc2)CNC/C1=C\c1ccccc1`, the TGI came to 4.57 µM in assay [8]; 2.76 µM in [1]; 9.3 µM in assay [7]; 5.25 µM in assay [2]; 3.28 µM in [3]; 0.536 µM in assay [4]. Moreover, the TGI was determined as 2.11 µM in [5] and 10.6 µM in assay [6].

With `O=C(c1ccccc1)c1nnc(C(=O)c2ccccc2)nn1`, the TGI in [1] was > 344 µM; in [7], > 344 µM; in assay [2], > 344 µM; in [3], > 344 µM; in [4], 128 µM; in [5] it was > 344 µM. Further, the TGI in assay [6] is > 344 µM.

`CC1=NN(C(=O)Nc2ccccc2)C(=O)C2CCC(=O)N12` (configuration not stated): the TGI in [8], in [1], in assay [2], in [3], in assay [4] and in assay [5] was > 100 µM throughout. Besides, the TGI in [6] was > 100 µM.

Consider `Cc1cc2c(cc1C)[n+](=O)c(C(=O)C/C(=N/NC(=O)CC#N)C(=O)Nc1ccccc1C(F)(F)F)c(C)n2[O-]`, for which the TGI in assay [8], in assay [1], in assay [7], in [2], in assay [3] and in [5] was > 100 µM in each case. For the same molecule, the TGI in [6] is > 100 µM.

Consider `CCOC(=O)[C]1([Bi]([CH3])[CH3])N=NC(C(=O)OC)=C1C(=O)OC` (configuration not stated), for which the GI50 was 25.7 µM in assay [8]; 20.7 µM in [1]; 17 µM in assay [7]; > 100 µM in assay [2]; 19.2 µM in assay [3]; 16.6 µM in assay [5]. Also, the TGI in assay [8] was 49 µM; in assay [1], 49.6 µM; in [7], 31.8 µM; in assay [2] it was > 100 µM; in assay [3] it was 35.8 µM; in assay [5] it was 32.8 µM.

Take `COC12C=C(C)C(CC1)CC2C(=O)O` (configuration not stated): the TGI in assay [8], in [1], in assay [7], in assay [2], in assay [3] and in assay [4] was > 100 µM each time. For the same molecule, the TGI in assay [5] and in assay [6] was > 100 µM each time.

With `Brc1cccc(C=NC23CC4CC(CC(C4)C2)C3)c1`, the TGI in [8], in [1], in [7], in assay [2], in assay [3] and in assay [5] was > 100 µM each time. Moreover, in assay [6], the TGI was > 100 µM.

In the case of `COc1ccc(C2=CC3CCC2C3)cc1` (configuration not stated), the TGI in [8], in assay [1], in assay [7], in assay [2], in assay [3] and in [4] was > 100 µM in each case. Moreover, the TGI in assay [5] and in [6] was > 100 µM each time.

On to `Nc1cc(N)c2nc(-c3ccccc3)c(Nc3ccc(Cl)c(Cl)c3)nc2c1`, for which the GI50 was 12.1 µM in assay [8]; 21.2 µM in assay [1]; 10.3 µM in assay [7]; 2.16 µM in assay [10]; 12.4 µM in assay [2]; 12.7 µM in assay [3]. In addition, the GI50 in assay [4] was 2.56 µM; in assay [5] it was 13.3 µM; in [6], 11.4 µM. Further, the TGI was 26.3 µM in [8]; > 100 µM in [1]; 24.3 µM in [7]; 4.59 µM in assay [10]; 27.9 µM in assay [2]; 31.8 µM in assay [3]. Moreover, the TGI in assay [4] was 15.5 µM; in assay [5], 51.8 µM; in assay [6], 28.2 µM.

`O=c1c2cc([N+](=O)[O-])ccc2sc2ccsc12`: the TGI in [8], in [1], in [7], in assay [2], in assay [3] and in assay [5] was > 100 µM throughout. The TGI in assay [6] is > 100 µM.

For the molecule `O=C1CCC2(c3ccc(F)cc3)Nc3cc(Cl)ccc3N12` (configuration not stated), the TGI in assay [8], in assay [1], in [7], in assay [2], in assay [3] and in [4] was > 100 µM in each case. In addition, the TGI in assay [5] and in [6] was > 100 µM in each case.

Turning to `COc1ccc(/C(COc2c(-c3ccccc3)oc3ccccc3c2=O)=N\O)cc1`, the GI50 is 12.3 µM in [9]; 19.5 µM in assay [1]; 10.6 µM in assay [3]; 19.5 µM in assay [5]; 17.8 µM in [6]. The TGI was 25.6 µM in assay [9]; > 50 µM in assay [1]; 33.9 µM in assay [3]; > 50 µM in assay [5]; > 50 µM in assay [6].

As for `COC(=O)C1Cc2c(n(Cc3ccccc3)c3ccccc23)C(CCC(=O)O)N1C(C)C` (configuration not stated), the TGI in assay [8], in [1], in [7], in assay [2], in assay [3] and in assay [4] was > 100 µM each time. Further, the TGI in assay [5] and in assay [6] was > 100 µM each time.

As for `O=C(/C=C/c1c(O)ccc2ccccc12)c1cccc(O)c1`, the TGI in [8], in assay [1], in assay [7], in assay [2], in assay [3] and in [4] was > 100 µM throughout. In addition, the TGI in assay [5] and in [6] was > 100 µM each time.
